According to publication PMC4408918 (Journal of medicinal chemistry, 2012):
Like-named read-outs stand apart in the source and are kept apart here.

How the values were obtained:
P. berghei (NK-65) = assay: Oral efficacy in P. berghei; details: 100 and 200 mg/kg oral on days 3, 4, 5
[1] = Liver microsomal stability, human; assay type: in vitro ADME; details: both, pH 7.4
P. falciparum 3D7 = P. falciparum 3D7 growth inhibition; assay type: cell-based; details: Plasmodium falciparum, 3D7, 72 h, read-out: 3D7 EC50
[2] = In vivo pharmacokinetics, oral, female CD-1 mice; details: for AUC(0-inf) / CL/F: female, CD-1, mouse, po
P. falciparum K1 = P. falciparum K1 growth inhibition; assay type: cell-based; details: Plasmodium falciparum, K1, 72 h, read-out: K1 EC50
Kir6.2/SUR2A = details: read-out: Kir6.2 IC50; cited from earlier work
[3] = Parallel Artificial membrane Permeability Assay; assay type: in vitro ADME; details: triplicate
[4] = Liver microsomal stability, mouse; assay type: in vitro ADME; details: female, CD9, mouse, mouse liver microsomes, pH 7.4
CYP2D6 = CYP2D6 (Homo sapiens, UniProt P10635); assay: CYP inhibition in human liver microsomes, CYP2D6; assay type: in vitro ADME; details: 20 minutes at 37 °C, two concentrations
CYP2D6, sequence (P10635 whole entry): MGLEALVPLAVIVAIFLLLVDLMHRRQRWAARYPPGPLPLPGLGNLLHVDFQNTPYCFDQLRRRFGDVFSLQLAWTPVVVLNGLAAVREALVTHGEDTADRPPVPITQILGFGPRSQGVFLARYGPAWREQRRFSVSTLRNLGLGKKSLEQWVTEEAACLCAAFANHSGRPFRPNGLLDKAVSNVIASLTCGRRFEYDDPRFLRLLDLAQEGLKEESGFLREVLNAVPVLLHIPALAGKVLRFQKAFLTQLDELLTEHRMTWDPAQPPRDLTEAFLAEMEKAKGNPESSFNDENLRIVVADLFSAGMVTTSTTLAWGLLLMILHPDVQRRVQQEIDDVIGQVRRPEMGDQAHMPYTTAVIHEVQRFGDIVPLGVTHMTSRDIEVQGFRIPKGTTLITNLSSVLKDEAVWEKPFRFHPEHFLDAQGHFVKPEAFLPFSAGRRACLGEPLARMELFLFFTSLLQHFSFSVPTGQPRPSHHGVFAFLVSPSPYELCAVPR

Nav1.5 = details: cited from earlier work
[5] = human liver microsomes (pooled)

Structure (SMILES) | CLint scaled at 2000 µM [1, 5] | AUC(0-inf) ([2]; plasma, 20 mg/kg) | CL/F ([2]; plasma, 20 mg/kg) | AUC(0-inf) ([2]; plasma, 200 mg/kg) | CL/F ([2]; plasma, 200 mg/kg) | AUC(0-inf) ([2]; plasma, 500 mg/kg) | CL/F ([2]; plasma, 500 mg/kg) | Avg. Pe (PAMPA permeability) [3] | overall in vivo efficacy (P. berghei (NK-65)) | IC50 (Kir6.2/SUR2A) | CLint scaled at 2000 µM [4] | CYP2D6 inhibition (CYP2D6) | AUC(0-inf) ([2]; in vivo, 200 mg/kg) | CL/F ([2]; in vivo, 200 mg/kg) | also measured
O=C(CCc1ccccc1)c1ccccc1OCC(O)CN1CCN(C(c2ccccc2)c2ccccc2)CC1 (stereo not shown) [Compound 1] | 14 ± 1 mL/min/kg | 0.249 µM·h | 2350 mL/min/kg | 3.1 µM·h | 1890 mL/min/kg | 3.37 µM·h | 4340 mL/min/kg | – | not significantly better than that of the negative controls | – | – | – | – | – | EC50 (P. falciparum 3D7): 0.06 ± 0.01 µM; EC50 (P. falciparum K1): 0.1 ± 0.05 µM
O=C(CCc1ccc(F)cc1)c1ccccc1OCC(O)CN1CCN(C(c2ccccc2)c2ccccc2)CC1 (stereo not shown) [Compound 3] | 13 ± 1 mL/min/kg | 0.298 µM·h | 1900 mL/min/kg | 5.67 µM·h | 1000 mL/min/kg | 4.08 µM·h | 3480 mL/min/kg | und^a | – | – | 43 ± 3 mL/min/kg | – | – | – | –
O=C(CCc1ccccc1)c1ccccc1OCC(O)CN1CCC(c2ccccc2)CC1 (stereo not shown) [Compound 4] | 11 ± 1 mL/min/kg | – | – | – | – | – | – | – | some efficacy in suppressing parasitemia and life extension, but did not provide durable cures | > 5 µM | 27 ± 2 mL/min/kg | weak CYP2D6 inhibitors | 6.8 µM·h | 1020 mL/min/kg | IC50 (Nav1.5; read-out: Nav1.5 phasic IC50, phasic): > 5 µM; IC50 (Nav1.5; read-out: Nav1.5 tonic IC50, tonic): > 5 µM; improvement in AUCinf over compound 1 ([2]; 500 mg/kg oral, female CD-1 mice): approximately 5 fold; AUC(0-inf) ([2]; in vivo, 20 mg/kg): 0.224 µM·h; CL/F ([2]; in vivo, 20 mg/kg): 3110 mL/min/kg; AUC(0-inf) ([2]; in vivo, 500 mg/kg): 15.3 µM·h; CL/F ([2]; in vivo, 500 mg/kg): 1140 mL/min/kg
Cc1ccc(N2CCN(CC(O)COc3ccccc3C(=O)CCc3ccccc3)CC2)cc1 (stereo not shown) [Compound 6] | – | – | – | – | – | – | – | und^a | – | > 5 µM | 30 ± 6 mL/min/kg | – | 6.49 µM·h | 1000 mL/min/kg | IC50 (Nav1.5): > 5 µM

The next lines start with results.

CLint scaled at 2000 µM [1, 5] | AUC(0-inf) ([2]; plasma, 20 mg/kg) | CL/F ([2]; plasma, 20 mg/kg) | AUC(0-inf) ([2]; plasma, 200 mg/kg) | CL/F ([2]; plasma, 200 mg/kg) | AUC(0-inf) ([2]; plasma, 500 mg/kg) | CL/F ([2]; plasma, 500 mg/kg) | Avg. Pe (PAMPA permeability) [3] | Structure (SMILES) | overall in vivo efficacy (P. berghei (NK-65)) | IC50 (Kir6.2/SUR2A) | CLint scaled at 2000 µM [4] | CYP2D6 inhibition (CYP2D6) | AUC(0-inf) ([2]; in vivo, 200 mg/kg) | CL/F ([2]; in vivo, 200 mg/kg) | also measured
– | – | – | 6.17 µM·h | 920 mL/min/kg | – | – | – | O=C(CCc1ccccc1)c1cc(F)ccc1OCC(O)CN1CCN(C(c2ccccc2)c2ccccc2)CC1 (stereo not shown) [Compound 2] | – | > 5 µM | – | – | – | – | CLint scaled at 2000 µM ([1]; microsomes): 5 ± 2 mL/min/kg
19 ± 1 mL/min/kg | 1.6 µM·h | 421 mL/min/kg | 3.75 µM·h | 1790 mL/min/kg | – | – | und^a | O=C(CCc1ccccc1)c1cc(F)ccc1OCC(O)CN1CCC(c2ccccc2)CC1 (stereo not shown) [Compound 5] | – | – | 29 ± 2 mL/min/kg | weak CYP2D6 inhibitors | – | – | increase in Cmax with increasing dose from 20 mg/kg to 200 mg/kg ([2]; oral, female CD-1 mice): 2 fold
